According to patent publication US9415011B1, “Method for treatment of liver cancer and inhibition of metastasis with CXC-chemokine-receptor 4-targeted nanoparticle” (National Tsing Hua University, priority 2015, dated 2016):

Tests used:
[1] = system: JHH-7 cells; assay: In vitro cytotoxicity, MTT assay; format: cell-based, human; conditions: JHH-7, 48 hours, sorafenib 0.25 μM, AMD3100 0.2 μM
Procedure: (§1) For cytotoxicity examination of the CXCR4-targeted lipid-coated PLGA nanoparticle of the present invention, HCA-1 or JHH-7 cells were seeded in 96-well transparent plates (Costar, Ill., USA) at a density of 1000 cells/well in a medium and were incubated for 12 hours. After confluency reached 10%, the medium was replaced with RPMI-1640 media containing DOPSor, ADOPSor, free DOPA, ADOP, or DOPSor with free AMD3100 at the equivalent sorafenib concentration of 0.25 μM. […] All cells were incubated for 48 hours. After incubation for another 3 hours, MTT assay was utilized to subsequently measure the cell viability. The absorbance of the wells was measured by Multiskan (Thermo, USA) at 570 nm and background absorbance was subtracted from all data. The percentage of cell viability was calculated by normalization of all values to the control group.

[2] = system: HCA-1 cells; assay: In vitro cytotoxicity, MTT assay; format: cell-based, murine; conditions: HCA-1, 48 hours, sorafenib 0.25 μM, AMD3100 0.2 μM
Procedure: as §1

[3] = In vivo pharmacokinetics of C6 in blood; set-up: species or system C3H mice; conditions: 2 mg/kg, mice with orthotopic HCA-1 tumor
Procedure: To examine the pharmacokinetics profile in vivo, firstly, C6-loaded lipid-coated PLGA nanoparticle without AMD3100 modification (DOP-C6) and C6-loaded AMD3100-modified lipid-coated PLGA nanoparticle (ADOP-C6) were prepared according to the method set forth above. Then, C3H mice with orthotopic HCA-1 tumor were administered with free C6, DOP-C6 and ADOP-C6 at a dosage of 2 mg/kg. 40 μl of blood was collected from the tail artery and mixed with 10 μL of EDTA (50 mM) at different periods of time. The fluorescence intensity was measured by the plate reader (Fluoroskan Ascent FL, Thermo Scientific) at an excitation wavelength of 485 nm and an emission wavelength of 538 nm C6 concentration was normalized and calculated from a standard curve obtained by spiking known amounts of free C6 or C6-loaded nanoparticles in blood obtained from uninjected mice.

[4] = system: orthotopic HCA-1 tumor; assay: Syngeneic orthotopic murine HCC model, sorafenib and AMD3100-modified nanoparticle; format: in vivo, C3H mice; conditions: sorafenib 50 mg/kg daily for 14 days
From the text: 4 to 6-week-old male C3H/HeNCrNarl mice (weight: 25 g) were purchased from National Laboratory Animal Center (Taipei, Taiwan). In order to create hepatocellular carcinoma model, every mouse was orthotopically injected with HCA-1 cells (10^6 cells per mouse) in liver.
On the other hand, HCA-1 cells were intrahepatic ally implanted into C3H mice to establish a syngeneic orthotopic murine HCC model. For evaluation of mean vessel density (MVD) and hypoxic induction, mice without any treatment were defined as Negative control group, while mice treated with free sorafenib alone were defined as Positive control group. Mice treated with free sorafenib and free AMD3100 were defined as Comparative. For the experimental groups, mice treated with AMD3100-modified lipid-coated nanoparticle of the present invention were defined as Experimental group 1, while mice treated with sorafenib and AMD3100-modified lipid-coated nanoparticle of the present invention together were defined as Experimental group 2.
After HCC tumors were established, mice were treated according to the above mentioned Positive control group, Comparative group, Experimental group 1, and Experimental group 2 with sorafenib given at a dose of 50 mg/kg daily for 14 days. […] On the other hand, the change in SDF1α expression as a consequence of treatment-induced hypoxia was examined.

[5] = system: JHH-7 cells; assay: Cell viability under sorafenib with recombinant SDF1α; format: cell-based, human; conditions: JHH-7, in the presence of sorafenib
From the text: (§2) To examine cell viability, cells without any treatment were defined as Negative control group, while cells treated with free sorafenib alone were defined as Positive control group. Meanwhile, cells treated with sorafenib in the presence of recombinant SDF1α were defined as Comparative group 1, while cells treated with free sorafenib and free AMD3100 were defined as Comparative group 2. Regarding the experimental groups, cells treated with sorafenib-loaded lipid-coated nanoparticle without AMD3100 modification were defined as Experimental group 1, while cells treated with sorafenib-loaded AMD3100-modified lipid-coated nanoparticle were defined as Experimental group 2.
(§3) To determine whether the SDF1α/CXCR4 axis mediates HCC resistance to sorafenib treatment, both murine HCC (HCA-1) and human HCC (JHH-7) cell lines were firstly exposed to recombinant SDF1α in the presence of sorafenib.

[6] = system: HCA-1 cells; assay: as above; format: cell-based, murine; conditions: HCA-1, in the presence of sorafenib
From the text: as §2, §3

[7] = system: VEGF; assay: VEGF expression by western blot; format: cell-based, human; conditions: JHH-7
From the text: (§4) Firstly, cells treated with free control siRNA were defined as Control group, while cells treated with free anti-VEGF siRNA were defined as Comparative group. Cells treated with anti-VEGF siRNA-loaded lipid-coated nanoparticle without AMD3100 modification were defined as Experimental group 1, while cells treated with anti-VEGF siRNA-loaded AMD3100-modified lipid-coated nanoparticle were defined as Experimental group 2.

[8] = system: orthotopic HCA-1 tumor; assay: In vivo tumor uptake of fluorescence-labeled siRNA; set-up: species or system mice; conditions: intravenous injection, after 4 hours
Procedure: Next, the uptake of the fluorescence-labeled siRNA in orthotopic HCA-1 tumor models via intravenous injection was evaluated after 4 hours.

[9] = system: VEGF; assay: VEGF expression by western blot; format: cell-based, murine; conditions: HCA-1
From the text: as §4

In the case of c1cc(CN2CCCNCCNCCCNCC2)ccc1CN1CCCNCCNCCCNCC1 [AMD3100], the “cytotoxicity / cell viability” value [1] is reported as “did not have a cytotoxic effect” and the “cytotoxicity / cell viability” value [2] is reported as “did not have a cytotoxic effect”.
For CCN(CC)c1ccc2cc(-c3nc4ccccc4s3)c(=O)oc2c1 [free C6, coumarin 6], the “C6 in blood after 1 hour” value [3] was “cleared rapidly from the blood after 1 hour” and the “C6 in blood after 4 hours” value [3] was “almost cleared out after 4 hours”.
In the case of CNC(=O)c1cc(Oc2ccc(NC(=O)Nc3ccc(Cl)c(C(F)(F)F)c3)cc2)ccn1 [sorafenib, Sorafenib], the “carbonic anhydrase IX (CAIX) expression (hypoxia)” value [4] is reported as “increase of carbonic anhydrase IX (CAIX) expression”, the “increase in SDF1α expression in HCA-1 tumor tissues” value [4] is reported as 3 fold and the “increase in number of F4/80+ macrophages” value [4] is reported as “over 3 fold”. For the same compound, the lung metastasis [4] was “Neither the Positive control group nor the Comparative group showed a reduction in metastasis formation”, the “mean vessel density (MVD)” value [4] was “significant reduction of MVD” and the tumor growth [4] was “moderate tumor growth inhibitory effect”.
In the case of SDF1α, the cell viability [5] is reported as “increased the viability” and the cell viability [6] is reported as “increased the viability”.
For “free anti-VEGF siRNA: anti-VEGF siRNA with sequence 5′-AUGUGAAUGCAGACCAAAGAA-3′ (chemistry not given here)”, the VEGF expression [7] was “no suppression of VEGF expression”, the “uptake of fluorescence-labeled siRNA in orthotopic HCA-1 tumor” value [8] was “intracellular uptake can hardly be detected” and the VEGF expression [9] was “no suppression of VEGF expression”.
